Measured values reported in paper PMC6430017, “Structural and chemical insights into the covalent-allosteric inhibition of the protein kinase Akt” (Chemical Science, 2019).

target: GRK5 (Homo sapiens, UniProt P34947); assay: SelectScreen Z'LYTE kinase profiling; assay type: biochemical; details: ATP at apparent KM
Description: (§1) protein kinases at a compound concentration of 1 µM. Measurements were performed in duplicates
(§2) and at the particular apparent ATP KM of each individual kinase employing the activity based Z’LYTE®
(§3) kinase assay of the SelectScreen® Kinase Profiling Services (ThermoFisher Scientific).
(§4) kinases at a compound concentration of 1 µM. Measurements were performed in duplicates and at
(§5) the particular apparent ATP KM of each individual kinase employing the activity based Z’LYTE® kinase
(§6) assay of the SelectScreen® Kinase Profiling Services (ThermoFisher Scientific).

Question: For `C=CC(=O)Nc1ccc2c(c1)n(C1CCN(Cc3ccc(-c4nc5cc[nH]c(=O)c5cc4-c4ccccc4)cc3)CC1)c(=O)n2C` [24b], which inhibition at 1 µM is on record?
Answer: -10%

target: T1, CHEK1 (CHK1) (Homo sapiens, UniProt O14757); assay: SelectScreen Z'LYTE kinase profiling; assay type: biochemical; details: ATP at apparent KM
T1 sequence (O14757 1-476): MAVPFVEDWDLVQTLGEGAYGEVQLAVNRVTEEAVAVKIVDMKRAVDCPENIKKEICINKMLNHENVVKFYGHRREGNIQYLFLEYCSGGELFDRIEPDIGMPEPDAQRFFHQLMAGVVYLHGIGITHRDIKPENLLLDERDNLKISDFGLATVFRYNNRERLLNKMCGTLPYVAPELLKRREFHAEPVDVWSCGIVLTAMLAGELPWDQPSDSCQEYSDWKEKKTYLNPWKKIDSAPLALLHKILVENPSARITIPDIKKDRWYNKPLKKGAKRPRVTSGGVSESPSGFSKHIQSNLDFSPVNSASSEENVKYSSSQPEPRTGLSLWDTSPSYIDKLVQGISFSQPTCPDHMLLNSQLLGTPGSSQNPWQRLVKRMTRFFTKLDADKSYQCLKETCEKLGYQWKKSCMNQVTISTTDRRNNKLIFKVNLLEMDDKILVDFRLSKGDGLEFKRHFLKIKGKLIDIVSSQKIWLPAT
Description: as §1, §2, §3, §4, §5, §6

Question: For `C=CC(=O)Nc1ccc2c(c1)n(C1CCN(Cc3ccc(-c4nc5cc[nH]c(=O)c5cc4-c4ccccc4)cc3)CC1)c(=O)n2C` [24b], which inhibition at 1 µM is on record?
Answer: -3%

target: PAK1 (Homo sapiens, UniProt Q13153); assay: SelectScreen Z'LYTE kinase profiling; assay type: biochemical; details: ATP at apparent KM
Sequence (Q13153 whole entry): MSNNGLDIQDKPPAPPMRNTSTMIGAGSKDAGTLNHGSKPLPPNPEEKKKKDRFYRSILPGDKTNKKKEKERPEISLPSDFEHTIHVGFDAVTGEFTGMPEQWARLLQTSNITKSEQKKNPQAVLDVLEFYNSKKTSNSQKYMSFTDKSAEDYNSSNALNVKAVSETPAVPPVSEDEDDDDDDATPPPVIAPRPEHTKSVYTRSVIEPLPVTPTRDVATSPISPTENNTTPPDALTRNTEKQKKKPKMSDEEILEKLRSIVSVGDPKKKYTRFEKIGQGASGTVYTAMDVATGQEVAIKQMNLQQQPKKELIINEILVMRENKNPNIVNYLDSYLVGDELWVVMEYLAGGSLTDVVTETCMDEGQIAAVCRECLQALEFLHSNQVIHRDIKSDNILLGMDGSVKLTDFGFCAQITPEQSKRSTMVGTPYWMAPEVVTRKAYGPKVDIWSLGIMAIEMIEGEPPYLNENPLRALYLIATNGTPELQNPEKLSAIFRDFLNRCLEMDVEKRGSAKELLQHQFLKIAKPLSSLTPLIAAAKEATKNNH
Description: as §1, §2, §3, §4, §5, §6

Question: With `C=CC(=O)Nc1ccc2c(c1)n(C1CCN(Cc3ccc(-c4nc5cc[nH]c(=O)c5cc4-c4ccccc4)cc3)CC1)c(=O)n2C` [24b] as the molecule, how does the inhibition at 1 µM read?
Answer: 12%

target: MAPKAPK3 (Homo sapiens, UniProt Q16644); assay: SelectScreen Z'LYTE kinase profiling; assay type: biochemical; details: ATP at apparent KM
Sequence (Q16644 whole entry): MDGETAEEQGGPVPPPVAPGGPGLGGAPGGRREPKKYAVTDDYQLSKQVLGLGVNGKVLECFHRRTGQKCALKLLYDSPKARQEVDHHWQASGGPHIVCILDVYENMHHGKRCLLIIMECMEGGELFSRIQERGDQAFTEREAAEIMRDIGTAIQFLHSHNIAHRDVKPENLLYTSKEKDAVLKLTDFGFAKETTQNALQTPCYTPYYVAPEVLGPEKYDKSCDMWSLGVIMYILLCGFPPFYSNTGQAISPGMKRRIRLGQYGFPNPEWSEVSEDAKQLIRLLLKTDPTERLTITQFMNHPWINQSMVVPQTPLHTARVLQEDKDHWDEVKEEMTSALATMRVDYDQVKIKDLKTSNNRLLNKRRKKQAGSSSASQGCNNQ
Description: as §1, §2, §3, §4, §5, §6

Question: With `C=CC(=O)Nc1ccc2c(c1)n(C1CCN(Cc3ccc(-c4nc5cc[nH]c(=O)c5cc4-c4ccccc4)cc3)CC1)c(=O)n2C` [24b] as the molecule, how does the inhibition at 1 µM read?
Answer: 23%

target: PAK4 (Homo sapiens, UniProt O96013); assay: SelectScreen Z'LYTE kinase profiling; assay type: biochemical; details: ATP at apparent KM
Sequence (O96013 whole entry): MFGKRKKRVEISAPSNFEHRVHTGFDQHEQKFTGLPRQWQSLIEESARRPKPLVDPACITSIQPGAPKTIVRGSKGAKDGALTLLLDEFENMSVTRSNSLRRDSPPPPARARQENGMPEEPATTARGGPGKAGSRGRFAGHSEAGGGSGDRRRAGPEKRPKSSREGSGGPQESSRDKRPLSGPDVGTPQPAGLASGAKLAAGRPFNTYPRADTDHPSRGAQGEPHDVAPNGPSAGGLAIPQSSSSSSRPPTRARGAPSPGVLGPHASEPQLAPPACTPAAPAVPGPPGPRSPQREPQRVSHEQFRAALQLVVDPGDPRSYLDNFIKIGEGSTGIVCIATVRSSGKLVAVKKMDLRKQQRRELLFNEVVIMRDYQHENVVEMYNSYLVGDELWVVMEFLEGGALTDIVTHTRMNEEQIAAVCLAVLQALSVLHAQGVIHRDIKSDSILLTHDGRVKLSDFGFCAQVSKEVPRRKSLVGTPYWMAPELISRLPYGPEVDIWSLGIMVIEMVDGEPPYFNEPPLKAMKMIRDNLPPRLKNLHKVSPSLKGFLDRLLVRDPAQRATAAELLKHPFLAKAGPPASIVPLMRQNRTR
Description: as §1, §2, §3, §4, §5, §6

Question: For `C=CC(=O)Nc1ccc2c(c1)n(C1CCN(Cc3ccc(-c4nc5cc[nH]c(=O)c5cc4-c4ccccc4)cc3)CC1)c(=O)n2C` [24b], which inhibition at 1 µM is on record?
Answer: 12%

target: PKN1 (PRK1) (Homo sapiens, UniProt Q16512); assay: SelectScreen Z'LYTE kinase profiling; assay type: biochemical; details: ATP at apparent KM
Sequence (Q16512 whole entry): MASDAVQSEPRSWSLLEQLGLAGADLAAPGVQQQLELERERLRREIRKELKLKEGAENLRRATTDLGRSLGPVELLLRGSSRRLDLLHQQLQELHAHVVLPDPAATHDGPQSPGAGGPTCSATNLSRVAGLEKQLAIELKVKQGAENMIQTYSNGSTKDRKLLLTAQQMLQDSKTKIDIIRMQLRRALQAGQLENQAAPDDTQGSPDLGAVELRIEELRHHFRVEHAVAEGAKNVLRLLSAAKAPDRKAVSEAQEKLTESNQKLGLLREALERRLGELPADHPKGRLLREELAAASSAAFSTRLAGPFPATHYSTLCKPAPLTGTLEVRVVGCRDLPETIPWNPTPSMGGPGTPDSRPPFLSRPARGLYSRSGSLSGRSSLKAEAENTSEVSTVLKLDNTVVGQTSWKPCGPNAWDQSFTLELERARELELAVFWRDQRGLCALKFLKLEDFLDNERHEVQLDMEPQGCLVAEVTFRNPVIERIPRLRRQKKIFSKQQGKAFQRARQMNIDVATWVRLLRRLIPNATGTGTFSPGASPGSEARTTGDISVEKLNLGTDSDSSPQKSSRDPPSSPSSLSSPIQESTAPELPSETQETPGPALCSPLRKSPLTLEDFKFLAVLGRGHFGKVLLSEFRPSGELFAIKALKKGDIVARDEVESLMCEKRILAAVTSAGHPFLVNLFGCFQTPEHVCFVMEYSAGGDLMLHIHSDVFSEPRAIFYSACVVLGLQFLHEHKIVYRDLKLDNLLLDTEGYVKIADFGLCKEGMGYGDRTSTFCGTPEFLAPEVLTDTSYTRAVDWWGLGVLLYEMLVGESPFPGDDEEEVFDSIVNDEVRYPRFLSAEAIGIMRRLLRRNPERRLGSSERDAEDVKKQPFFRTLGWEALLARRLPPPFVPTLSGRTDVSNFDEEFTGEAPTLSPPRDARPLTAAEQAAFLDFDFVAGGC
Description: as §1, §2, §3, §4, §5, §6

Question: With `C=CC(=O)Nc1ccc2c(c1)n(C1CCN(Cc3ccc(-c4nc5cc[nH]c(=O)c5cc4-c4ccccc4)cc3)CC1)c(=O)n2C` [24b] as the molecule, how does the inhibition at 1 µM read?
Answer: -1%

target: T2, SGK2 (Homo sapiens, UniProt Q9HBY8); assay: SelectScreen Z'LYTE kinase profiling; assay type: biochemical; details: ATP at apparent KM
T2 sequence (Q9HBY8 1-367): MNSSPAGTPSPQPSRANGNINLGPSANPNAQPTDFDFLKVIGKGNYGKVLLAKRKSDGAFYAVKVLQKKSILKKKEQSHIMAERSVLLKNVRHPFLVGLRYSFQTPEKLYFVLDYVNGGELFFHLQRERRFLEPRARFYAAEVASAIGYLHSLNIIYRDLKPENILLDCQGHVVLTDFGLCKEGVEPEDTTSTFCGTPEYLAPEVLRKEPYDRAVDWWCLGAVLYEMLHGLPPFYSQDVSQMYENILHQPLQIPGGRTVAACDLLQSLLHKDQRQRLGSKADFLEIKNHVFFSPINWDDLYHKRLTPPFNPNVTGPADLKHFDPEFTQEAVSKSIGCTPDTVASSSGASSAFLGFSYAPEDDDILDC
Description: as §1, §2, §3, §4, §5, §6

Question: Which inhibition at 1 µM does the source give for `C=CC(=O)Nc1ccc2c(c1)n(C1CCN(Cc3ccc(-c4nc5cc[nH]c(=O)c5cc4-c4ccccc4)cc3)CC1)c(=O)n2C` [24b] here?
Answer: -1%

target: PLK1 (Homo sapiens, UniProt P53350); assay: SelectScreen Z'LYTE kinase profiling; assay type: biochemical; details: ATP at apparent KM

Question: With `C=CC(=O)Nc1ccc2c(c1)n(C1CCN(Cc3ccc(-c4nc5cc[nH]c(=O)c5cc4-c4ccccc4)cc3)CC1)c(=O)n2C` [24b] as the molecule, how does the inhibition at 1 µM read?
Answer: 5%

target: AMPK A2/B1/G1 (Homo sapiens, UniProt P54646); assay: SelectScreen Z'LYTE kinase profiling; assay type: biochemical; details: ATP at apparent KM
Description: as §1, §2, §3, §4, §5, §6

Question: With `C=CC(=O)Nc1ccc2c(c1)n(C1CCN(Cc3ccc(-c4nc5cc[nH]c(=O)c5cc4-c4ccccc4)cc3)CC1)c(=O)n2C` [24b] as the molecule, how does the inhibition at 1 µM read?
Answer: 20%

tested on: not listed separately; assay: Phase I metabolic stability assay; details: human, liver microsomes
Description: For this purpose, we used a microsomal stability assay that is a good predictor for phase I metabolic stability.[50]
Metabolic stability under oxidative conditions was determined by LCMS-based measuring of
degradation of compounds at 3 µM in human and murine liver microsomes over 60 minutes at 37 °C
Calculating the compound half-life t1/2, the in vitro intrinsic clearance CLint is

Question: With `C=CC(=O)Nc1ccc2c(c1)n(C1CCN(Cc3ccc(-c4nc5cc[nH]c(=O)c5cc4-c4ccccc4)cc3)CC1)c(=O)n2C` [24b] as the molecule, how does the half-life at 1 h, 3 µM read?
Answer: 25 min

Question: What about the microsomal CLint at 3 µM of the same molecule?
Answer: 19 µL/min/mg

target: T3, PRKCI (PKC iota) (Homo sapiens, UniProt P41743); assay: SelectScreen Z'LYTE kinase profiling; assay type: biochemical; details: ATP at apparent KM
T3 sequence (P41743 1-596): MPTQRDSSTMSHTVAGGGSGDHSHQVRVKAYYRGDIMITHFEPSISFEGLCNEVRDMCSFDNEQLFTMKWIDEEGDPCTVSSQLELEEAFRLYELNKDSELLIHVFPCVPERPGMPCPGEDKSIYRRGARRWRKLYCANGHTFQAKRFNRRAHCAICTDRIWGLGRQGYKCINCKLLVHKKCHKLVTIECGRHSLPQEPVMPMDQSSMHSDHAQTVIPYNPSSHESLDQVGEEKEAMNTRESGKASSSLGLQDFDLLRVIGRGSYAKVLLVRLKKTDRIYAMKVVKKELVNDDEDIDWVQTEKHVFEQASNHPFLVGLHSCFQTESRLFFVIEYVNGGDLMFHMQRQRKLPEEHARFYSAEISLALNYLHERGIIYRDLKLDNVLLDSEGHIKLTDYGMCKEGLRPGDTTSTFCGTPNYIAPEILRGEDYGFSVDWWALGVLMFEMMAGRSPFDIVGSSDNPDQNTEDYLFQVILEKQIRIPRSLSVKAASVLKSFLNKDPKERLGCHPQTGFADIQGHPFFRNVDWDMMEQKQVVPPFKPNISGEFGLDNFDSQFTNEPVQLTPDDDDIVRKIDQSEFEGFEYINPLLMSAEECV
Description: as §1, §2, §3, §4, §5, §6

Question: Which inhibition at 1 µM does the source give for `C=CC(=O)Nc1ccc2c(c1)n(C1CCN(Cc3ccc(-c4nc5cc[nH]c(=O)c5cc4-c4ccccc4)cc3)CC1)c(=O)n2C` [24b] here?
Answer: 3%

target: CHEK2 (CHK2) (Homo sapiens, UniProt O96017); assay: SelectScreen Z'LYTE kinase profiling; assay type: biochemical; details: ATP at apparent KM
Description: as §1, §2, §3, §4, §5, §6

Question: With `C=CC(=O)Nc1ccc2c(c1)n(C1CCN(Cc3ccc(-c4nc5cc[nH]c(=O)c5cc4-c4ccccc4)cc3)CC1)c(=O)n2C` [24b] as the molecule, how does the inhibition at 1 µM read?
Answer: -13%

target: T4, DCAMKL2 (DCK2) (Homo sapiens, UniProt Q8N568); assay: SelectScreen Z'LYTE kinase profiling; assay type: biochemical; details: ATP at apparent KM
T4 sequence (Q8N568 1-766): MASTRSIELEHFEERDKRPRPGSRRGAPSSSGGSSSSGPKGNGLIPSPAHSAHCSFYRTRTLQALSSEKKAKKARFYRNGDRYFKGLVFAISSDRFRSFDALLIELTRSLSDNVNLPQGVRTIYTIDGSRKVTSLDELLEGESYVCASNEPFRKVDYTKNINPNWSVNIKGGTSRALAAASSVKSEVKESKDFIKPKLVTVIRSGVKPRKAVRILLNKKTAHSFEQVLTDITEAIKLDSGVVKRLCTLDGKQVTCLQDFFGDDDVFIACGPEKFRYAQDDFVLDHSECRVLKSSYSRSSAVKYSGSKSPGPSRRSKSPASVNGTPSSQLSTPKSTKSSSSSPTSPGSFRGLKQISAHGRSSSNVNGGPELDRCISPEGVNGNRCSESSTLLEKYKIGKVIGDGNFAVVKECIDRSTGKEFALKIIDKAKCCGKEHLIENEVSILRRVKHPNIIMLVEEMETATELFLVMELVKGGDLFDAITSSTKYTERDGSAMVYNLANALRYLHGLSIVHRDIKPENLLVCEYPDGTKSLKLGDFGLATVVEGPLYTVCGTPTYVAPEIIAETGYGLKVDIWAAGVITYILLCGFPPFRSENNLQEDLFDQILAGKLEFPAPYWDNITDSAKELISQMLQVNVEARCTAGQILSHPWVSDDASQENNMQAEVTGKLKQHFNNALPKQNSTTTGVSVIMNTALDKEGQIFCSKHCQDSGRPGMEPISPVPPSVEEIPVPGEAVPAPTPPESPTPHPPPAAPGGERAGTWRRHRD
Description: as §1, §2, §3, §4, §5, §6

Question: For `C=CC(=O)Nc1ccc2c(c1)n(C1CCN(Cc3ccc(-c4nc5cc[nH]c(=O)c5cc4-c4ccccc4)cc3)CC1)c(=O)n2C` [24b], which inhibition at 1 µM is on record?
Answer: -1%

target: TEK (Tie2) (Homo sapiens, UniProt Q02763); assay: SelectScreen Z'LYTE kinase profiling; assay type: biochemical; details: ATP at apparent KM
Sequence (Q02763 23-1124): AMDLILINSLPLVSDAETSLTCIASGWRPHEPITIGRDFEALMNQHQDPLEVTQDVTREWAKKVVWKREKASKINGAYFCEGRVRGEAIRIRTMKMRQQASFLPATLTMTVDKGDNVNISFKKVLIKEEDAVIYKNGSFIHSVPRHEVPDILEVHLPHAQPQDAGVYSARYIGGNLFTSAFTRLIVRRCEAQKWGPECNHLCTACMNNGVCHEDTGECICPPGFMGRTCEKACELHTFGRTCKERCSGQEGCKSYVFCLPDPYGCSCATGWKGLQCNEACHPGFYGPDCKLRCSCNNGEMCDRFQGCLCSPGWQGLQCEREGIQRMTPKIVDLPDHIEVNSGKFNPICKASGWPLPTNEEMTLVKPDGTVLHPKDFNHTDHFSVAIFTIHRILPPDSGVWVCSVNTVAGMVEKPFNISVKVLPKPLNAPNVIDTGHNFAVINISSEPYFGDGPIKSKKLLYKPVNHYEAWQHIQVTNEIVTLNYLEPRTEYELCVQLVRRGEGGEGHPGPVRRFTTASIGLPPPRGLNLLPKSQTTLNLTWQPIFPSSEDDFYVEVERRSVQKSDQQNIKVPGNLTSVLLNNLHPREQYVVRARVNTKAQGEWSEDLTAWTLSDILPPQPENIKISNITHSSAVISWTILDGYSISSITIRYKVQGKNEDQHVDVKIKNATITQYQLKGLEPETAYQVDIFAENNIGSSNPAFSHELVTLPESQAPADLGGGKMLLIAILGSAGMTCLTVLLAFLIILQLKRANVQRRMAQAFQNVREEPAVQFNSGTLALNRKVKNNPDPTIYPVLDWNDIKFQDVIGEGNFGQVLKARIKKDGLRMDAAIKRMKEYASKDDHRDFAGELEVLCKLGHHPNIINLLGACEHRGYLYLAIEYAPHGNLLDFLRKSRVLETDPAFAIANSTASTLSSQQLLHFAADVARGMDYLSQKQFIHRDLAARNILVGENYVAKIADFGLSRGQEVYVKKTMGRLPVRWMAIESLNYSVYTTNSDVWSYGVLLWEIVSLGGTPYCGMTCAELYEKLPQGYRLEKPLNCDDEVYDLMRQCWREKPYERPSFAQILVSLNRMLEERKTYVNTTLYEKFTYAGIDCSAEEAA
Description: as §1, §2, §3, §4, §5, §6

Question: With `C=CC(=O)Nc1ccc2c(c1)n(C1CCN(Cc3ccc(-c4nc5cc[nH]c(=O)c5cc4-c4ccccc4)cc3)CC1)c(=O)n2C` [24b] as the molecule, how does the inhibition at 1 µM read?
Answer: 2%

target: ABL1 (Homo sapiens, UniProt P00519); assay: SelectScreen Z'LYTE kinase profiling; assay type: biochemical; details: ATP at apparent KM
Sequence (P00519 whole entry): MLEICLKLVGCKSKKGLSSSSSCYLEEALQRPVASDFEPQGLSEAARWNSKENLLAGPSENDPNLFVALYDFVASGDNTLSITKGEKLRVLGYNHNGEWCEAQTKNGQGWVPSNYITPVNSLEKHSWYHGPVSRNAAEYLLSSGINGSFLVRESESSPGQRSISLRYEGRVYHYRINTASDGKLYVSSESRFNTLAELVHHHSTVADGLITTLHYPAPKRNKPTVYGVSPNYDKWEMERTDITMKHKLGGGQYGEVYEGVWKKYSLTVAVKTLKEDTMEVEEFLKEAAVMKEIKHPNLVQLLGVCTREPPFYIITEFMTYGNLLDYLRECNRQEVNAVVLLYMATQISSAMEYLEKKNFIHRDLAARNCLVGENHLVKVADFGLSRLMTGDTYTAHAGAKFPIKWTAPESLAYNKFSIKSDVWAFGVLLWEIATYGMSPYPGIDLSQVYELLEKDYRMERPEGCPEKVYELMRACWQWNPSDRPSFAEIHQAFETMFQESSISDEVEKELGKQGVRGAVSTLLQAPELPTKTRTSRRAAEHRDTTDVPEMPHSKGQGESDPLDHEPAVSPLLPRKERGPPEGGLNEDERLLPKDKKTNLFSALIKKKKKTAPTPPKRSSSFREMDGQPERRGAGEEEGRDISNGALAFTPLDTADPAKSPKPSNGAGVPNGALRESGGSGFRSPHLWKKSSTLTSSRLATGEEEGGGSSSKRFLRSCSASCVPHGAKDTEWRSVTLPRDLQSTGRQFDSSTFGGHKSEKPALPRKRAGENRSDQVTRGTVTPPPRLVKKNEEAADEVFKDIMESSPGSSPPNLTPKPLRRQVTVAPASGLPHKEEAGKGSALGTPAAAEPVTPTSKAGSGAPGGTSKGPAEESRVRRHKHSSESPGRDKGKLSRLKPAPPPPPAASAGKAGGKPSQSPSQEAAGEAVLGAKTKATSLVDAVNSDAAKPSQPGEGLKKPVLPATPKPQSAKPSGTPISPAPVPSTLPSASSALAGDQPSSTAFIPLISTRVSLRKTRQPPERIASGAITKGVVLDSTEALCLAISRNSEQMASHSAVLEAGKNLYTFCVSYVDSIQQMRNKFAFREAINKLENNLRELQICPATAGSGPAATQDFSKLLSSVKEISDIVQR
Description: as §1, §2, §3, §4, §5, §6

Question: Which inhibition at 1 µM does the source give for `C=CC(=O)Nc1ccc2c(c1)n(C1CCN(Cc3ccc(-c4nc5cc[nH]c(=O)c5cc4-c4ccccc4)cc3)CC1)c(=O)n2C` [24b] here?
Answer: 2%
